For one test, the target named is T1, Aurora A kinase (Homo sapiens, UniProt O14965).
T1 construct: purchased Upstate Biotech
T1 sequence (O14965 1-403): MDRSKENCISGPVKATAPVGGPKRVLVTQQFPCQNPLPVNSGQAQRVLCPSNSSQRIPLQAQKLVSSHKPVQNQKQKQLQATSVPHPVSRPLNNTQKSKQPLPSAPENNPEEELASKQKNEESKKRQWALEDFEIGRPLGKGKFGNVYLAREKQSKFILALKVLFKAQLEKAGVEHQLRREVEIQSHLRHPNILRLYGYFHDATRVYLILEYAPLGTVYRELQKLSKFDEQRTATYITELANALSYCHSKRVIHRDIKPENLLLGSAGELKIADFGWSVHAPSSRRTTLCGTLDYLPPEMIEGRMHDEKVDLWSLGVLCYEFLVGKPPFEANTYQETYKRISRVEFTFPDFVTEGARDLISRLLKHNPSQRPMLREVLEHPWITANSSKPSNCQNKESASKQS
The test can be described thus: Aurora A kinase assay (IMAP fluorescence polarization). To be noted: 10 μM ATP; rounded to 1 significant figure; read-out: Aur-A IC50. It is filed as biochemical. An outline of the steps:
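Compounds (eight 3-fold dilutions, 2.5% DMSO final) were preincubated 5 min at room temperature with Aurora A kinase in buffer with 1 mM DTT. Reaction with 100 nM fluorescein-PKAtide and 10 μM ATP ran 45 min at room temperature, then was stopped with IMAP binding reagent; fluorescence polarization was read after 30 min.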
A general note: Polarisation of emitted light reports the rotation of a fluorescent probe.

Another test deals with T2, Aurora B kinase (Homo sapiens, UniProt Q96GD4).
T2 construct: purchased BPS Bioscience
In words: Aurora B kinase assay (IMAP fluorescence polarization). The test is classed as biochemical. To be noted: 10 μM ATP; rounded to 1 significant figure; read-out: Aur-B IC50. An outline of the steps: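 Reaction started with 100 nM fluorescein-labelled PKAtide and 10 μM ATP, run 45 min at room temperature, then stopped with IMAP binding reagent (1:400). After 30 min shaking at room temperature, fluorescence polarization read; run in duplicate with solvent control.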

In another test the target is T3, VEGFR2 kinase (Homo sapiens, UniProt P35968).
T3 construct: purchased Cell Signaling Technology
The test can be described thus: VEGFR2 kinase assay. It is filed as biochemical. To be noted: 6 μM ATP, 1 mM MnCl2; rounded to 1 significant figure. An outline of the steps:
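VEGFR2 phosphorylates CSKtide with 6 μM ATP and 1 mM MnCl2 for 1 hr, otherwise following the Aurora A kinase protocol. Detection by IMAP fluorescence polarization, binding reagent diluted 1:1200 in 1:1 binding buffer A/B. Run in duplicate with solvent control.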

A further test concerns p-H3 in HCT116 cells. The test can be described thus: Histone phosphorylation (p-H3) assay. The test is classed as cell-based. To be noted: Homo sapiens, read-out: p-H3 IC50. An outline of the steps:
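HCT116 cells (2.5×10^4/well, attached overnight) treated 4 h with 8-point 3-fold compound dilutions at 0.5% DMSO. Lysates dot-blotted onto nitrocellulose and probed for p-H3 with β-actin on the same membrane, fluorescent secondary antibodies, Odyssey scan; duplicate wells.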

The test system of test [1] is HCT116 (human colon carcinoma) cells. The test can be described thus: HCT116 cytotoxicity assay (CellTiter-Glo). The test is classed as cell-based. To be noted: HCT-116, 72 h, read-out: HCT116 IC50. Background: ATP-based viability assays read luminescence as a measure of living cells.
For test [2], the system named is HL60 (human promyelocytic leukemia) cells. In words: HL60 cytotoxicity assay (CellTiter-Glo). The test is classed as cell-based. To be noted: HL-60, 72 h, read-out: HL60 IC50. From the text: The cell lines HL60 (human promyelocytic leukemia) and HCT116 (human colon carcinoma) were obtained from the American Type Culture Collection, Manassas, Va., U.S.A., and HUVEC-2 (human umbilical vein endothelial cells) from BD Biosciences, Bedford, Mass., U.S.A. Aurora A kinase was obtained from Upstate Biotech, Billerica, Mass., U.S.A.; Aurora B kinase from BPS Bioscience, San Diego, Calif., U.S.A.; and VEGFR2 kinase from Cell Signaling Technology, Danvers, Mass., U.S.A. The IMAP FP Screening Express kit was obtained from Molecular Devices, Sunnyvale, Calif., U.S.A.; the CellTiter-Glo assay kit from Promega Corporation, Madison, Wis., U.S.A.; and the Cellular DNA Cytometric Analysis Reagent Kit and BrdU labeling and detection kit from Roche Diagnostics Corporation, Indianapolis, Ind., U.S.A. All products were used in accordance with manufacturer's directions. Kinase inhibition assays and the histone phosphorylation (p-H3) assay were conducted in duplicate, and the cytotoxicity and HUVEC proliferation assays were conducted in triplicate, in each case with solvent control.
Log-phase cells were trypsinized, collected by centrifugation, and resuspended in a small volume of fresh medium, and the density of viable cells was determined following Trypan Blue staining. Cells were diluted in fresh media (1×10^4 cells/mL for HL60 and 4×10^4 cells/mL for HCT116 cells), the test compounds (concentrations between 0.1 μM and 200 μM, dissolved in DMSO, 50 μL) added immediately after dilution to achieve a final DMSO concentration of 0.5%, then the suspensions added at 150 μL/well to 96-well plates, and incubated overnight to allow attachment in the case of adherent cells. The cells were cultured for three days (about three doubling times). The cells were then collected by centrifugation, and 100 μL of the culture supernatant was replaced by the CellTiter-Glo reagent. After incubation for 15 minutes at room temperature, the plate was read with a luminometer.

The test system of test [3] is HUVEC-2 (human umbilical vein endothelial cells). The test can be described thus: HUVEC VEGF-dependent proliferation assay (BrdU). The test is classed as cell-based. To be noted: read-out: HUVEC IC50. An outline of the steps:
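HUVEC-2 cells on gelatin got serially diluted compound (0.5% DMSO final), and VEGF (25 ng/mL) was added 2 hr later. BrdU (10 μM) went in after one day, with labelling for another day. VEGF-dependent proliferation was read by BrdU detection, in triplicate.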

Setting [4] is: HCT-116, HCT116 cells, 4 hr incubation.
Where [5] appears, read: cytotoxicity, three days culture.
Setting [6] is: VEGF (25 ng/mL)-dependent proliferation.

Here are results for 17 compounds from patent publication US8129396B2, “2-[1H-benzimidazol-2(3H)-ylidene]-2-(pyrimidin-2-yl)acetamides and 2-[benzothiazol-2(3H)-ylidene]-2-(pyrimidin-2-yl)acetamides as kinase inhibitors” (Telik, Inc., priority 2008, dated 2012).

The structures appear in SMILES notation. Where two headings read alike, the source gives them in different places.

T3 sequence (P35968 20-1356): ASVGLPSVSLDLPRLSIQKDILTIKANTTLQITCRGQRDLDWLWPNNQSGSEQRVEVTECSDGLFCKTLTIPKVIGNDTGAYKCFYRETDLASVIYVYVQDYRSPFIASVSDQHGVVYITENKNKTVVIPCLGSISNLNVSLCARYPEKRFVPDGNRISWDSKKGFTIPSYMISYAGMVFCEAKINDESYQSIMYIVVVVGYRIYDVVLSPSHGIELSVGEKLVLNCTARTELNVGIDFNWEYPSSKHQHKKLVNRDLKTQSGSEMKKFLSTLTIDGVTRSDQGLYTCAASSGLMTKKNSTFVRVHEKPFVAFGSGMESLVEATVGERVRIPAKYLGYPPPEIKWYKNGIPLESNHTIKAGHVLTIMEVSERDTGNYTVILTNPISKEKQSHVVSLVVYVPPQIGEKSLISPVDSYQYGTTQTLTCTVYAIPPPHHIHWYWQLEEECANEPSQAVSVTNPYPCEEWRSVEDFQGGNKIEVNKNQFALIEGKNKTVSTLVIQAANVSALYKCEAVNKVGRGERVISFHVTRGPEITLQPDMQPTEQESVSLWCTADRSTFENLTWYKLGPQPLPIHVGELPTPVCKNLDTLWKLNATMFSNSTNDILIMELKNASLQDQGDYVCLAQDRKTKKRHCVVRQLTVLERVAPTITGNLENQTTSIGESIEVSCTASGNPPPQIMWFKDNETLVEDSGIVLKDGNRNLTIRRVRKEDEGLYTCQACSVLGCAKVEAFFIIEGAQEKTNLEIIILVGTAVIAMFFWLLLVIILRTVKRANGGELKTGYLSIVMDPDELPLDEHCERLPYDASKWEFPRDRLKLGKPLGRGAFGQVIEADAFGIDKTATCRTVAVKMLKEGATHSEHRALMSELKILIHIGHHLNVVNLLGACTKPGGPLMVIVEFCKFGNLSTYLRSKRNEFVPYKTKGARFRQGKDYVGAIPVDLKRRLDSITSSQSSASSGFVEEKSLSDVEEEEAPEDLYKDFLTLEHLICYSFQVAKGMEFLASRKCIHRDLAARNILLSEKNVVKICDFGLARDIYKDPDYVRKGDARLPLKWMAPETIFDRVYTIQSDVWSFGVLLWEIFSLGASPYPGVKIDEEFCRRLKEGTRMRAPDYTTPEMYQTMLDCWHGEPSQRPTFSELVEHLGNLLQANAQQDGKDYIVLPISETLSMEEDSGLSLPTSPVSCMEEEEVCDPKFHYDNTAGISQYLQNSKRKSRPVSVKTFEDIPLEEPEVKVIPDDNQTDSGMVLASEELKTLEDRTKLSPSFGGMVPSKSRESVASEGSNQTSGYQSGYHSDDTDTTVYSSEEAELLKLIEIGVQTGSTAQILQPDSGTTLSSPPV
T2 sequence (Q96GD4 whole entry): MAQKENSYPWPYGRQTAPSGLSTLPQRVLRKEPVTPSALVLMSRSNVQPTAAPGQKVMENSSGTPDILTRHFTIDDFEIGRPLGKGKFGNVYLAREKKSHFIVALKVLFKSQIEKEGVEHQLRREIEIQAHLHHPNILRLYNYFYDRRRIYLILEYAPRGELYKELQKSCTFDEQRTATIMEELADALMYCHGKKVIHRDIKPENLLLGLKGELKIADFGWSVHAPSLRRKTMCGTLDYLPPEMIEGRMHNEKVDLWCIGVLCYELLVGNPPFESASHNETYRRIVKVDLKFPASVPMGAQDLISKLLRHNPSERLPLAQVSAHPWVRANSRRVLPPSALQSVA

For orientation: IC50 means the concentration that gives 50% inhibition. As to `NC(=O)/C(=C1\Nc2ccc(Cn3ccnc3)cc2S1)c1nccc(C(F)(F)F)n1` [Compound 89A], the IC50 at Aurora A kinase stood at 5 nM; on Aurora B kinase it was 5 nM; on VEGFR2 kinase it was 6 nM; with p-H3 in HCT116 cells (setting [4]), 100 nM; in test [1] (setting [5]), 500 nM; in test [2] (setting [5]), 700 nM. In test [3] (setting [6]), the IC50 turned out to be 80 nM.

For the compound `NC(=O)/C(=C1\Nc2ccc(S(=O)(=O)NCCCN3CCOCC3)cc2S1)c1nccc(C(F)(F)F)n1` [Compound 127A], the concentration for half-maximal inhibition (IC50) at Aurora A kinase came to 20 nM; on Aurora B kinase it was 6 nM; against VEGFR2 kinase, 20 nM; in the test on p-H3 in HCT116 cells (setting [4]), 200 nM; in test [1] (setting [5]) it was 600 nM; in test [2] (setting [5]), 500 nM. Besides, the IC50 in test [3] (setting [6]) amounted to 40 nM.

As to `NC(=O)/C(=C1\Nc2ccc(NC(=O)[C@H]3CCCN3)cc2N1)c1nccc(C(F)(F)F)n1` [Compound 79A], the IC50 worked out at 20 nM at Aurora A kinase; 20 nM at Aurora B kinase; 10 nM on VEGFR2 kinase; 400 nM in the test with p-H3 in HCT116 cells (setting [4]); 100 nM in test [1] (setting [5]); 300 nM in test [2] (setting [5]). Also, the IC50 in test [3] (setting [6]) came out at 40 nM.

`CN1CCC[C@H]1C(=O)Nc1ccc2c(c1)S/C(=C(/C(N)=O)c1nccc(C(F)(F)F)n1)N2` [Compound 78A]: the IC50 on Aurora A kinase came out at 60 nM; on Aurora B kinase, 40 nM; on VEGFR2 kinase it was 50 nM; in the test with p-H3 in HCT116 cells (setting [4]), 600 nM; in test [1] (setting [5]) it was 2000 nM; in test [2] (setting [5]), 1000 nM. The IC50 in test [3] (setting [6]) was 400 nM.

Turning to `NC(=O)C(=C1Nc2ccccc2N1)c1nccc(C(F)(F)F)n1` [Compound 1A, 2-[1H-benzimidazol-2(3H)-ylidene]-2-(4-trifluoromethylpyrimidin-2-yl)acetamide], the IC50 was 10 nM at Aurora A kinase; 5 nM at Aurora B kinase; 10 nM on VEGFR2 kinase; 200 nM with p-H3 in HCT116 cells (setting [4]); 300 nM in test [1] (setting [5]); 1000 nM in test [2] (setting [5]). The IC50 in test [3] (setting [6]) amounted to 70 nM.

`NC(=O)/C(=C1\Nc2ccc(Oc3cccnc3)cc2S1)c1nccc(C(F)(F)F)n1` [Compound 118A]: the IC50 on Aurora A kinase is 40 nM; on Aurora B kinase it was 10 nM; against VEGFR2 kinase, 100 nM; with p-H3 in HCT116 cells (setting [4]), 4000 nM; in test [1] (setting [5]) it was 2000 nM; in test [2] (setting [5]), 300 nM. In addition, in test [3] (setting [6]), the IC50 is 200 nM.

For the compound `Cc1cc2c(cc1C)NC(=C(C(N)=O)c1ncc(C(=O)NCCN3CCOCC3)c(C(F)(F)F)n1)N2` [Compound 136A], the IC50 at Aurora A kinase is 20 nM; against VEGFR2 kinase it was 30 nM; in the test with p-H3 in HCT116 cells (setting [4]) it was 200 nM; in test [1] (setting [5]), 800 nM; in test [2] (setting [5]), 200 nM; in test [3] (setting [6]), 200 nM.

As to `NC(=O)/C(=C1\Nc2ccc(CC(=O)NCCCN3CCOCC3)cc2S1)c1nccc(C(F)(F)F)n1` [Compound 110A], the IC50 at Aurora A kinase came out at 50 nM; on Aurora B kinase, 20 nM; at VEGFR2 kinase it was 20 nM; with p-H3 in HCT116 cells (HCT-116, 4 h), 200 nM; in test [1] it was 200 nM; in test [2] it was 800 nM. Besides, the IC50 in test [3] came out at 80 nM.

Regarding `NC(=O)/C(=C1\Nc2ccc(-c3cccnc3)cc2S1)c1nccc(C(F)(F)F)n1` [Compound 108A], the IC50 at Aurora A kinase was 10 nM; at Aurora B kinase, 10 nM; against VEGFR2 kinase, 60 nM; in the test with p-H3 in HCT116 cells (setting [4]), 3000 nM; in test [1] (setting [5]) it was 2000 nM; in test [2] (setting [5]), 2000 nM.

Take `NC(=O)C(=C1Nc2ccccc2N1)c1nc(N)cc(C(F)(F)F)n1` [Compound 12A]: the IC50 came to 7 nM at Aurora A kinase; 6 nM at Aurora B kinase; 40 nM at VEGFR2 kinase; 100 nM in the test on p-H3 in HCT116 cells (setting [4]); 400 nM in test [1] (setting [5]); 200 nM in test [2] (setting [5]).

As to `Cc1cc(C(F)(F)F)nc(C(C(N)=O)=C2Nc3ccccc3N2)n1` [Compound 138A], the IC50 at Aurora A kinase was found to be 8 nM; on Aurora B kinase, 8 nM; at VEGFR2 kinase, 40 nM; in the test on p-H3 in HCT116 cells (setting [4]), 500 nM; in test [1] (setting [5]), 1000 nM; in test [2] (setting [5]), 400 nM.

Turning to `NC(=O)/C(=C1\Nc2ccccc2S1)c1nc(C(F)(F)F)cc(C(F)(F)F)n1` [Compound 9A], the IC50 at Aurora A kinase is 10 nM; at Aurora B kinase it was 7 nM; at VEGFR2 kinase it was 60 nM; in the test with p-H3 in HCT116 cells (setting [4]), greater than 5000 nM; in test [1] (setting [5]), greater than 20000 nM; in test [2] (setting [5]) it was greater than 20000 nM.

With `CC(C)(C)c1cc(C(F)(F)F)nc(C(C(N)=O)=C2Nc3ccccc3S2)n1` (single isomer, unassigned) [Compound 7A, 2-[benzothiazol-2(3H)-ylidene]-2-[4-tert-butyl-6-(trifluoromethyl)pyrimidin-2-yl]acetamide], the IC50 was 7 nM at Aurora A kinase; 20 nM at Aurora B kinase; 30 nM against VEGFR2 kinase; greater than 5000 nM with p-H3 in HCT116 cells (setting [4]); 6000 nM in test [1] (setting [5]); 80 nM in test [2] (setting [5]).

With `COc1cc(C(F)(F)F)nc(/C(C(N)=O)=C2/Nc3ccccc3S2)n1` [Compound 6A], the IC50 at Aurora A kinase was 20 nM; at Aurora B kinase it was 10 nM; on VEGFR2 kinase it was 200 nM; in the test on p-H3 in HCT116 cells (setting [4]) it was 2000 nM; in test [1] (setting [5]), 4000 nM; in test [2] (setting [5]), 2000 nM.

Take `NC(=O)/C(=C1\Nc2ccc(CCc3cccnc3)cc2S1)c1nccc(C(F)(F)F)n1` [Compound 99A]: the IC50 worked out at 20 nM on Aurora A kinase; 7 nM at Aurora B kinase; 100 nM against VEGFR2 kinase; 1000 nM with p-H3 in HCT116 cells (setting [4]); 3000 nM in test [1] (setting [5]); 2000 nM in test [2] (setting [5]).

Regarding `CCN(CCO)C(=O)c1ccc2c(c1)S/C(=C(/C(N)=O)c1nccc(C(F)(F)F)n1)N2` [Compound 31A], the IC50 came to 4 nM on Aurora A kinase; 9 nM at Aurora B kinase; 3 nM at VEGFR2 kinase; 100 nM with p-H3 in HCT116 cells (setting [4]); 200 nM in test [1] (setting [5]); 1000 nM in test [2] (setting [5]).

Take `COc1ccnc(C(C(N)=O)=C2Nc3ccccc3N2)n1` [Compound 17A]: the IC50 at Aurora A kinase is 300 nM; on Aurora B kinase, 30 nM; at VEGFR2 kinase it was 1 nM; with p-H3 in HCT116 cells (setting [4]), 600 nM; in test [1] (setting [5]), 5000 nM; in test [2] (setting [5]), 5000 nM.
